target: T1, rat A2B receptors (rA2B) (Rattus norvegicus, UniProt P29276); test: Radioligand competition binding (125I-ABOPX) at rat A2B receptors in HEK-293 membranes; conditions: displacement of specific [125I]ABOPX binding at rat A2B receptors expressed in HEK-293 cells; read-out: RatA2B Ki
T1 construct: expressed in transfected cells; host or cells: HEK-293 cells, stably transfected (G418 selection); membranes
T1 sequence (P29276 1-332): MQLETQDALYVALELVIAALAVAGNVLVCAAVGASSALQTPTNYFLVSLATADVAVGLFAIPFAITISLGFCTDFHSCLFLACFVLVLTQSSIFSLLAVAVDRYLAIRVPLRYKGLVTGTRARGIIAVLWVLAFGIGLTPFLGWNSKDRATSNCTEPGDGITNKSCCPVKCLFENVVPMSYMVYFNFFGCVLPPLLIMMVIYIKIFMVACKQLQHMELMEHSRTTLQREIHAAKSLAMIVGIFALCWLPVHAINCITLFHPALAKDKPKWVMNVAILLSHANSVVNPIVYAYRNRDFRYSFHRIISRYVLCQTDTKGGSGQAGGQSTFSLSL
Experimental: The plasmid was amplified in competent JM109 cells and plasmid DNA isolated using Wizard Megaprep columns (Promega Corporation, Madison, Wis.).
Transfected HEK cells were grown under 5% CO2/[…] humidified atmosphere at a temperature of 37° C. Colonies were selected by growth of cells in 0.6 mg/mL G418. Transfected cells were maintained in DMEM supplemented with Hams F12 nutrient mixture (1/1), 10% newborn calf serum, 2 mM glutamine and containing 50 IU/mL penicillin, […], and 0.2 mg/mL Geneticin (G418, Boehringer Mannheim). Cells were cultured in 10 cm diameter round plates and subcultured when grown confluent (approximately after 72 hours).
At A2B receptors: Confluent monolayers of HEK-A2B cells were washed with PBS followed by ice cold Buffer A (10 mM HEPES, 10 mM EDTA, pH 7.4) with protease inhibitors (10 μg/mL benzamidine, 100 μM phenylmethanesulfonyl fluoride, and 2 μg/mL of each aprotinin, pepstatin and leupeptin). The cells were homogenized in a Polytron (Brinkmann) for 20 s, centrifuged at 30,000×g, and the pellets washed twice with buffer HE (10 mM HEPES, 1 mM EDTA, pH 7.4 with protease inhibitors). The final pellet was resuspended in buffer HE, supplemented with 10% sucrose and frozen in aliquots at −80° C. For binding assays membranes were thawed and diluted 5-10 fold with HE to a final protein concentration of approximately 1 mg/mL. To determine protein concentrations, membranes, and bovine serum albumin standards were dissolved in 0.2% NaOH/0.01% SDS and protein determined using fluorescamine fluorescence. Stowell, C.
After incubation, 20 minutes at room temperature, 50 μL, of 10 mg/mL Na-metabisulfite in water was added to quench the reaction. The reaction mixture was applied to a C18 HPLC column, eluting with a mixture of methanol and 5 mM phosphate, pH 6.0. After 5 min at 35% methanol, the methanol concentration was ramped to 100% over 15 min.
Radioligand binding experiments were performed in triplicate with 20-25 μg membrane protein in a total volume of 0.1 mL HE buffer supplemented with 1 U/mL adenosine deaminase and 5 mM MgCl2. The incubation time was 3 h at 21° C. Nonspecific binding was measured in the presence of 100 μM NECA. […] Membranes were filtered on Whatman GF/C filters using a Brandel cell harvester (Gaithersburg, Md.) and washed 3 times over 15-20 seconds with ice cold buffer (10 mM Tris, 1 mM MgCl2, pH 7.4). Bmax and KD values were calculated by Marquardt's nonlinear least squares interpolation for single a site binding models. Marquardt, D. M., J. Soc. Indust. Appl. […] Ki values for different compounds were derived from IC50 values as described. Linden, J., J. Cycl. Nucl. […] Data from replicate experiments are tabulated as means±SEM.

Ki | SMILES
< 100 nM | CCCn1c(=O)c2[nH]c(-c3ccc(N(C)C(=O)c4cc(C)on4)nc3)nc2n(CCC)c1=O [Compound 111, 1,3-Dipropyl-8-[6-[N-(5-methylisoxazol-3-yl-3-carbonyl)methylamino]-3-pyridyl)xanthine]
< 100 nM | CCCn1c(=O)c2[nH]c(-c3ccc(N(C)C(=O)c4ccc(C(F)(F)F)nc4)nc3)nc2n(CCC)c1=O [Compound 121, 1,3-dipropyll-8-[6-(N-[6-(trifluoromethyl)nicotinoyl]methylamino)-3-pyridyl]xanthine]
< 500 nM | CCn1c(=O)c2[nH]c(-c3ccc(N(CC4CC4)C(=O)c4cccnc4)nc3)nc2n(CC)c1=O [Compound 144, 1,3-Diethyl-8-[6-[N-nicotinoylcyclopropylmethylamino]-3-pyridyl)xanthine]

— patent US20100273780A1, “SUBSTITUTED 8-HETEROARYL XANTHINES” (PGXHEALTH, LLC, priority 2003, published 2010)
